Reference: publication PMC3968228 (Cancer chemotherapy and pharmacology, 2014)
Values belong to the molecule of their own block, whether it stands above or below them.

Key:
[1] = three new patients on ritonavir-based cART, docetaxel 70 to 100 mg/m^2; cited from earlier work
[2] = for elimination pattern of docetaxel concentration-time profile: docetaxel 20 mg/kg i.v., male FVB mice
[3] = with ritonavir; cited from earlier work
[4] = male, FVB, mouse, plasma, iv, 20 mg/kg

elimination pattern of docetaxel concentration-time profile ([2]; plasma): triphasic
AUC(0-inf) [2, 4]: 10.3 µg·h/mL
Cmax [2, 4]: 18.1 ± 2.2 µg/mL
clearance [2, 4]: 1.93 L/h/kg
concentration at 24 hr [2, 4]: 0.009 ± 0.0007 µg/mL
SMILES: CC(=O)O[C@@]12CO[C@@H]1C[C@H](O)[C@@]1(C)C(=O)[C@H](O)C3=C(C)[C@@H](OC(=O)[C@H](O)[C@@H](NC(=O)OC(C)(C)C)c4ccccc4)C[C@@](O)([C@@H](OC(=O)c4ccccc4)[C@H]21)C3(C)C [Docetaxel]
toxicity [1]: severe toxicities

SMILES: O=C1Nc2ccc(Cl)cc2[C@@](C#CC2CC2)(C(F)(F)F)O1 [efavirenz, Efavirenz]
effect on docetaxel exposure (AUC) ([2]; CYP3A4 inducers p.o. x4d before docetaxel 20 mg/kg i.v.): did not have a significant effect
elimination pattern of docetaxel concentration-time profile ([2]; plasma): triphasic

SMILES: CC(=O)N1CCN(c2ccc(OCC3COC(Cn4ccnc4)(c4ccc(Cl)cc4Cl)O3)cc2)CC1 (stereo not shown) [ketoconazole, Ketoconazole]
elimination pattern of docetaxel concentration-time profile ([2]; plasma): biphasic

SMILES: CC(C)c1nc(CN(C)C(=O)N[C@H](C(=O)N[C@@H](Cc2ccccc2)C[C@H](O)[C@H](Cc2ccccc2)NC(=O)OCc2cncs2)C(C)C)cs1 [ritonavir, Ritonavir]
oral bioavailability of docetaxel [3]: 130-160 % of control
